Experiments:
Assay type in all cases: cell-based, human
[1] = test system: bcl-xL; experiment: bcl-xL protein expression (Western blot, intracellular FACS); conditions: activated T cells
Description: (§1) FACS analysis: Analysis of peripheral blood T cells and lamina propria T lymphocytes by FACS (FACSscan; Becton Dickinson; Berlin, Germany) was performed using FITC-labeled murine antibodies to human CD4 (PharMingen), anti-mouse IgG1 isotype control antibodies (PharMingen), antibodies to bcl-xL and p mitogen-activated protein kinase kinase (pMEK) (Santa Cruz Biotech; Santa Cruz, Calif., USA), and goat anti-mouse Fab-FITC (DAKO). For intracellular staining analysis, T cells were fixed in PBS/4% paraformaldehyde (Merck; Munich, Germany) for 10 minutes at 4° C., washed twice in PBS, permeabilized in PBS/0.1% Triton X-100 (Sigma-Aldrich; Steinheim, Germany), and treated with mouse anti-human bcl-xL or MEK antibodies (2 μg per 5×10^5 cells) for 30 minutes on ice. T cells were washed twice in PBS/0.1% Triton X-100 before incubation with goat anti-mouse Fab-FITC (2 μl per 10^5 cells). Finally, T cells were washed twice in PBS before FACS analysis.
The cells were then washed in PBS, resuspended in 1 ml of T40E10N150 buffer (40 mM Tris-HCl [pH 7.9], 10 mM EDTA [pH 8.0], 150 mM NaCl), put on ice for 5 minutes, and centrifuged for 4 minutes at 4° C. at 1,000 rpm. […] The protein concentrations in supernatants were determined with the Bio-Rad Protein Assay (Bio-Rad; Munich, Germany). […]

[2] = test system: MEK; experiment: MEK phosphorylation and expression (Western blot, FACS); conditions: 3 days
Description: as §1
The cells were then washed in PBS, resuspended in 1 ml of T40E10N150 buffer (40 mM Tris-HCl [pH 7.9], 10 mM EDTA [pH 8.0], 150 mM NaCl), put on ice for 5 minutes, and centrifuged for 4 minutes at 4° C. at 1,000 rpm. The cell pellet was then resuspended on ice in 70 μl of buffer (10 mM HEPES [pH 8.0], 400 mM NaCl, 0.1 mM EDTA, 5% glycerol, 1 mM DTT, 1 mM PMSF) and centrifuged at 15,000 rpm for 30 minutes at 4° C. The protein concentrations in supernatants were determined with the Bio-Rad Protein Assay (Bio-Rad; Munich, Germany).
Western blots: Equal amounts of extract (30 μg) were added to 8 μl of electrophoresis sample buffer (Firma Roth; Karlsruhe, Germany). After boiling, the extracts were loaded on 15% SDS-PAGE gels and electrophoretically separated. Proteins were transferred to nitrocellulose membranes, and detection was performed with the ECL Western blotting analysis system (Amersham). […]

[3] = test system: Ras; experiment: Ras activation assay (GTP-bound Ras, Raf RBD pull-down); conditions: primary T cells
Description: (§2) Cell lysates were incubated with 10 μg/ml PAK-1 agarose (Rac assays) or 10 μg/mg Raf RBD agarose (Ras assay) for 60 minutes (Rac assays) or 30 minutes (Ras assays) at 4° C. Agarose beads were collected by centrifugation followed by denaturation, boiling of the samples, and SDS-PAGE analysis.

[4] = test system: STAT-3; experiment: Rac1-bound STAT-3 (PAK pull-down, immunoblot); conditions: primary T cells, 3 days
Description: FIG. 7. […] Purified CD4^+ T lymphocytes were stimulated with IL-2 and antibodies to CD3 or IL-2 plus antibodies to CD3 and CD28 for 3 days. […] GTP-bound Ras (Ras-GTP) was analyzed using Raf RGD to determine Ras activation. […] Similarly, Ras was obtained using Raf RGD agarose followed by analysis of [^3H]GTP-bound Ras by scintillation counting.
as §2

| Structure (SMILES) | bcl-xL protein expression [1] | MEK phosphorylation [2] | activation of Ras (GTP-bound Ras) [3] | Rac1-bound STAT-3 [4] | expression levels of MEK [2] |
| --- | --- | --- | --- | --- | --- |
| Sc1ncnc2nc[nH]c12 [6-MP, 6-mercaptopurine] | strongly suppressed | suppresses | fail to modulate | Downregulation | – |
| Cn1cnc([N+](=O)[O-])c1Sc1ncnc2nc[nH]c12 [azathioprine, Azathioprine] | strongly suppressed | suppressed | virtually unaffected | reduced | nearly unchanged |
